One assay deals with Ba/F3 TelJAK2 cells. The experiment in a line: Subcutaneous tumour model of Ba/F3 TelJAK2 cells in nude mice. The assay is classed as in vivo, mouse. To be noted: for tumour volumes compared to Vehicle Control Treated Group: after 14 days of dosing; for mean percentage T/C: dosing day 14. The procedure:
Dosing commenced 11 days post-tumour cell inoculation, when tumours were palpable (mean tumour volume of 6 mm^3). Tumour dimensions were measured twice weekly.

Assay [1] deals with pYSTAT5 in erythroid cells (CD45lo, CD71hi) from bone marrow. Put plainly: Ex vivo pYSTAT5 flow cytometry in erythroid cells from JAK2 V617F positive patients. The assay is classed as cell-based, human. Conditions: 3 μM to 0.0041 μM, one hour, erythropoietin stimulated 10 minutes, patient bone marrow. The source says: To assess the activity of small molecule inhibitors of JAK2 an assay has been developed to quantify the activity of the JAK-STAT pathway by measuring the phosphorylation status of the downstream protein STAT5. After ligand binding, a haemopoietic cytokine receptor undergoes conformational change activating associated JAK2 protein. Activated JAK2 then phosphorylates the intracellular portion of the receptor forming binding sites for the recruitment of intracellular signaling proteins. […]
Results of flow cytometry experiments are presented in two different formats (FIG. 7C). The pYSTAT5 positive population is quantitated as the percentage of cells in the upper right quadrant of the dot plot graphs (FIGS. 7A and B). […]
The second format of presentation is presented in the right panel of FIG. 7C. This measurement represents the mean fluorescence intensity in the pYSTAT5 channel and includes both erythroid cells that are stimulated by EPO and those that are not. This is an absolute value measurement of fluorescence and there was variability between these values between the three individuals tested. As the concentration of inhibitor is decreased the mean fluorescence of the total erythroid population moved towards the value of the positive control.
On the technique in general: A flow cytometer gives signals particle by particle.

Turning to `N#CCNC(=O)c1ccc(-c2ccnc(Nc3ccc(N4CCOCC4)cc3)n2)cc1` [Compound 3, N-(cyanomethyl)-4-(2-(4-morpholinophenyl-amino)pyrimidin-4-yl)benzamide], the “tumour volumes compared to Vehicle Control Treated Group” value in the assay with Ba/F3 TelJAK2 cells (5 mg/kg) is given as “not different”; in the assay with Ba/F3 TelJAK2 cells (10 mg/kg b.i.d., t-test p<0.05) it was “smaller tumour volumes”; in the assay on Ba/F3 TelJAK2 cells (20 mg/kg b.i.d., t-test p<0.05), “smaller tumour volumes”. Further, the “mean percentage T/C” value in the assay on Ba/F3 TelJAK2 cells (5 mg/kg/day oral gavage) is on record as 82%; in the assay on Ba/F3 TelJAK2 cells (10 mg/kg b.i.d. oral gavage), 25%; with Ba/F3 TelJAK2 cells (20 mg/kg b.i.d. oral gavage) it was 39%. The results for the “effect on pYSTAT5 (STAT5 phosphorylation) in erythroid cells” value in assay [1] and in assay [1] (listed as compound 3) were “dose-dependent reduction” and “dose-dependent increase in inhibition”, respectively.

Values taken from patent US12570614B2, “Phenyl amino pyrimidine compounds and uses thereof” (GlaxoSmithKline LLC, priority 2007, dated 2026).
